SMILES strings stand for the structures. pEC50: −log10 of the molar value.

The target of one test is T1, hSTING-WT (R232) (Homo sapiens, UniProt Q86WV6, H232R).
T1 construct: host or cells: THP1-Dual cells (human monocytes) with knocked-in hSTING R232
Put plainly: STING activation, THP1-Dual IRF3 reporter assay, hSTING-R232 cells. The class given is cell-based. Conditions: IRF3 luciferase reporter, 24 hours, read-out: STING activity using hSTING-R232 cells EC50. Here is the method: To assess potency of STING agonist compounds described herein, THP1-Dual™ Cells (NF—KB-SEAP and IRF-Lucia luciferase reporter monocytes, InvivoGen) were used. The reporter cells were knocked-in either of hSTING-WT (R232, #thpd-r232), HAQ variant (#thpd-nfis), or H232 variant (#thpd-h232). All cells were cultured at 37° C. in a humidified incubator at 5% CO2 and maintained in RPMI 1640 medium (Gibco, #22400097) supplemented with 10% heat-inactivated FBS and 1×Pen-Strep (Gibco, #15140122). To measure STING agonist-mediated IRF3 activity, the cells (9.0×10^4 cells per well) were seeded in a flat-bottomed 96-well plate. The next day, the cells were treated with compounds in a serial dilution for 24 hours. Subsequently, 20 μL of the cell culture supernatant and 50 μL of the QUANTI-Luc™ reagent (InvivoGen, #rep-qlc) were mixed in a 96-well white plate and then, luciferase activity was measured using an EnVision Xcite multilabel reader. The data were analyzed using Prism8 software (4-parameter).
The potency of STING agonist compounds was evaluated by the activation of Type I Interferon pathway using THP-1 IRF3 reporter assay.

Another test addresses T2, human STING (Homo sapiens, UniProt Q86WV6, H232R).
T2 construct: purchased Cisbio 64BDSTGPEG
The experiment in a line: Direct STING binding, HUMAN STING WT BINDING KIT (Cisbio). The settings on record: direct binding to human STING WT protein in vitro; read-out: Binding potency EC50. An excerpt: Additionally, for analysis of direct binding potency of STING agonist compounds described herein to human STING, HUMAN STING WT BINDING KIT (Cisbio, #64BDSTGPEG) was used according to the manufacture's instruction.

T2 sequence (Q86WV6 whole entry H232R): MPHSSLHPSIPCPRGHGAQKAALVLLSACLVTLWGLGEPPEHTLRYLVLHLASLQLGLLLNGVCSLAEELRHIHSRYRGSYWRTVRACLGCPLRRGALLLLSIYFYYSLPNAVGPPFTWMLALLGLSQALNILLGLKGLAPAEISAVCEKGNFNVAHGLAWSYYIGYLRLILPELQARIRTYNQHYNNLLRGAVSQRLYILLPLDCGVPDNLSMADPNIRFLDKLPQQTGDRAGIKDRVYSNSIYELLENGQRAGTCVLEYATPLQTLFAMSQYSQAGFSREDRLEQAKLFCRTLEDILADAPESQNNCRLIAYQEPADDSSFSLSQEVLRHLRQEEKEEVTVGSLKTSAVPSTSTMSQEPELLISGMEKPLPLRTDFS
T1 sequence (Q86WV6 whole entry H232R): as above

Take `CCn1nc(C)cc1C(=O)Nc1nc2cc(C(N)=O)cc(OC)c2n1C/C=C/Cn1c(NC(=O)c2cc(C)nn2CC)nc2cc(C(N)=O)cc(OC/C=C/Cn3cc(NCCC(=O)OC)cn3)c21` [Compound 174]: at hSTING-WT (R232), the pEC50 – broadly, −log10 of the EC50, conventionally taken in molar units – was 7.35. Still for that read-out and setting: in the case of `CCn1nc(C)cc1C(=O)Nc1nc2cc(C(N)=O)cc(OC)c2n1C/C=C/Cn1c(NC(=O)c2cc(C)nn2CC)nc2cc(C(N)=O)cc(OCCc3ccc(NC(=O)OCc4ccc(O[C@@H]5O[C@H](C(=O)O)[C@@H](O)[C@H](O)[C@H]5O)c(C(=O)NCCOC)c4)cc3)c21` [Compound 239] it was 8.35; in that of `CCn1nc(C)cc1C(=O)Nc1nc2cc(C(N)=O)cc(OC)c2n1C/C=C/Cn1c(NC(=O)c2cc(C)nn2CC)nc2cc(C(N)=O)cc(OCCc3ccc(NC(=O)OCc4ccc(O[C@@H]5O[C@H](C(=O)O)[C@@H](O)[C@H](O)[C@H]5O)c(C(=O)NCCOCCOCCN(C)C)c4)cc3)c21` [Compound 262], 8.17. Turning to `CCn1nc(C)cc1C(=O)Nc1nc2cc(C(N)=O)cc(OC)c2n1C/C=C/Cn1c(NC(=O)c2cc(C)nn2CC)nc2cc(C(N)=O)cc(OC/C=C/Cn3cc(NC(=O)OCc4ccc(O[C@@H]5O[C@H](C(=O)O)[C@@H](O)[C@H](O)[C@H]5O)c(C(=O)NCCOC)c4)cn3)c21` [Compound 272], the pEC50 at hSTING-WT (R232) was 7.72. Regarding `CCn1nc(C)cc1C(=O)Nc1nc2cc(C(N)=O)cc(OC)c2n1C/C=C/Cn1c(NC(=O)c2cc(C)nn2CC)nc2cc(C(N)=O)cc(OC/C=C/Cn3cc(NC(=O)OCc4ccc(O[C@@H]5O[C@H](C(=O)O)[C@@H](O)[C@H](O)[C@H]5O)c(C(=O)NCCOCCOCCOCCOCCOCC(=O)O)c4)cn3)c21` [Compound 285], the pEC50 on human STING is 9.52; at hSTING-WT (R232), 7.48. For `CCn1nc(C)cc1C(=O)Nc1nc2cc(C(N)=O)cc(OC)c2n1C/C=C/Cn1c(NC(=O)c2cc(C)nn2CC)nc2cc(C(N)=O)cc(OC/C=C/Cn3cc(NC(=O)OCc4ccc(O[C@@H]5O[C@H](C(=O)O)[C@@H](O)[C@H](O)[C@H]5O)c(C(=O)NCCOCCOCCN5CCOCC5)c4)cn3)c21` [Compound 291], the pEC50 was 9.59 at human STING and 8.05 at hSTING-WT (R232). Regarding `CCn1nc(C)cc1C(=O)Nc1nc2cc(C(N)=O)cc(OC)c2n1C/C=C/Cn1c(NC(=O)c2cc(C)nn2CC)nc2cc(C(N)=O)cc(OC/C=C/Cn3cc(NC(=O)OCc4ccc(O[C@@H]5O[C@H](C(=O)O)[C@@H](O)[C@H](O)[C@H]5O)c(C(=O)O)c4)cn3)c21` [Compound 299], the values for the pEC50 at human STING and at hSTING-WT (R232) were 9.57 and 8.14, respectively. For `CCn1nc(C)cc1C(=O)Nc1nc2cc(C(N)=O)cc(OC)c2n1C/C=C/Cn1c(NC(=O)c2cc(C)nn2CC)nc2cc(C(N)=O)cc(OC/C=C/Cn3cc(NC(=O)OCc4ccc(O[C@@H]5O[C@H](CO)[C@H](O)[C@H](O)[C@H]5O)c(C(=O)NCCOCCOCCO)c4)cn3)c21` [Compound 307] the same measures were 9.74 and 8.27. Turning to `CCn1nc(C)cc1C(=O)Nc1nc2cc(C(N)=O)cc(OC)c2n1C/C=C/Cn1c(NC(=O)c2cc(C)nn2CC)nc2cc(C(N)=O)cc(OC/C=C/Cn3cc(NC(=O)OCc4ccc(O[C@@H]5O[C@H](CO)[C@H](O)[C@H](O)[C@H]5O)c(C(=O)NCCOC)c4)cn3)c21` [Compound 320], the pEC50 was 10.40 at human STING and 8.44 at hSTING-WT (R232). For `CCn1nc(C)cc1C(=O)Nc1nc2cc(C(N)=O)cc(OC)c2n1C/C=C/Cn1c(NC(=O)c2cc(C)nn2CC)nc2cc(C(N)=O)cc(OC/C=C/Cn3cc(NC(=O)OCc4ccc(O[C@@H]5O[C@H](C(=O)O)[C@@H](O)[C@H](O)[C@H]5O)c(C(=O)NCCC(=O)NC(CC(=O)O)CC(=O)O)c4)cn3)c21` [Compound 328] the same measures were 10.40 and 7.09.

Consider `CCn1nc(C)cc1C(=O)Nc1nc2cc(C(N)=O)cc(OC)c2n1C/C=C/Cn1c(NC(=O)c2cc(C)nn2CC)nc2cc(C(N)=O)cc(OC/C=C/CN(CCCNC(=O)OCc3ccc(O[C@@H]4O[C@H](C(=O)O)[C@@H](O)[C@H](O)[C@H]4O)c(C(=O)NCCOCCOCCN4CCOCC4)c3)C(=N)N)c21` [Compound 332], for which the negative-log EC50 (pEC50) on hSTING-WT (R232) was 6.24. As for `CCn1nc(C)cc1C(=O)Nc1nc2cc(C(N)=O)cc(OC)c2n1C/C=C/Cn1c(NC(=O)c2cc(C)nn2CC)nc2cc(C(N)=O)cc(OC/C=C/Cn3cc(NC(=O)OCc4ccc(O[C@@H]5O[C@H](CO)[C@H](O)[C@H](O)[C@H]5O)c(C(=O)NCCOCCOCCN(C)C)c4)cn3)c21` [Compound 337], the pEC50 at human STING was 9.72; at hSTING-WT (R232) it was 7.79. Turning to `C#CCNC(=O)c1cc(COC(=O)Nc2cnn(C/C=C/COc3cc(C(N)=O)cc4nc(NC(=O)c5cc(C)nn5CC)n(C/C=C/Cn5c(NC(=O)c6cc(C)nn6CC)nc6cc(C(N)=O)cc(OC)c65)c34)c2)ccc1O[C@@H]1O[C@H](C(=O)OC)[C@@H](OC(C)=O)[C@H](OC(C)=O)[C@H]1OC(C)=O` [Compound 347], the pEC50 on hSTING-WT (R232) was 7.98. Take `CCn1nc(C)cc1C(=O)Nc1nc2cc(C(N)=O)cc(OC)c2n1C/C=C/Cn1c(NC(=O)c2cc(C)nn2CC)nc2cc(C(N)=O)cc(OC/C=C/Cn3cc(NC(=O)OCc4ccc(O[C@@H]5O[C@H](C(=O)O)[C@@H](O)[C@H](O)[C@H]5O)c(C(=O)NCCCn5cc(CCOP(=O)(O)O)nn5)c4)cn3)c21` [Compound 357]: the pEC50 on human STING was 9.85; on hSTING-WT (R232), 7.30.

Turning to `CCn1nc(C)cc1C(=O)Nc1nc2cc(C(N)=O)cc(OC)c2n1C/C=C/Cn1c(NC(=O)c2cc(C)nn2CC)nc2cc(C(N)=O)cc(OC/C=C/Cn3cc(NC(=O)OCc4ccc(O[C@@H]5O[C@H](C(=O)O)[C@@H](O)[C@H](O)[C@H]5O)c(C(=O)NCCOCCOCCN=[N+]=[N-])c4)cn3)c21` [Compound 367], at hSTING-WT (R232), the pEC50 was 8.12. On the same count and under the same terms, under `CCn1nc(C)cc1C(=O)Nc1nc2cc(C(N)=O)cc(OC)c2n1C/C=C/Cn1c(NC(=O)c2cc(C)nn2CC)nc2cc(C(N)=O)cc(OC/C=C/Cn3cc(NC(=O)OCc4ccc(O[C@@H]5O[C@H](C(=O)O)[C@@H](O)[C@H](O)[C@H]5O)c(C(=O)NCCOCCOCCN)c4)cn3)c21` [Compound 372] stands 7.26; under `CCn1nc(C)cc1C(=O)Nc1nc2cc(C(N)=O)cc(OC/C=C/Cn3cc(NC(=O)OCc4ccc(OC5O[C@H](C(=O)O)[C@@H](O)[C@H](O)[C@H]5O)c(C(=O)NCCOCCOCCN(C)C)c4)cn3)c2n1C/C=C/Cn1c(NC(=O)c2cc(C)nn2CC)nc2cc(C(N)=O)cc(OCCCS(C)(=O)=NC(=O)OCc3ccc(O[C@@H]4O[C@H](C(=O)O)[C@@H](O)[C@H](O)[C@H]4O)c(C(=O)NCCOCCOCCN(C)C)c3)c21` (stereo partly drawn) [Compound 376], 6.54; under `CCn1nc(C)cc1C(=O)Nc1nc2cc(C(N)=O)cc(OC)c2n1C/C=C/Cn1c(NC(=O)c2cc(C)nn2CC)nc2cc(C(N)=O)cc(OC/C=C/CN3CCN(C(=O)OCc4ccc(O[C@@H]5O[C@H](C(=O)O)[C@@H](O)[C@H](O)[C@H]5O)c(C(=O)NCCOC)c4)CC3=O)c21` [Compound 417], 7.61. Regarding `CCn1nc(C)cc1C(=O)Nc1nc2cc(C(N)=O)cc(OC)c2n1C/C=C/Cn1c(NC(=O)c2cc(C)nn2CC)nc2cc(C(N)=O)cc(OC/C=C/CN3CCCN3C(=O)OCc3ccc(O[C@@H]4O[C@H](C(=O)O)[C@@H](O)[C@H](O)[C@H]4O)c(C(=O)NCCOC)c3)c21` [Compound 419], the negative-log EC50 (pEC50) at hSTING-WT (R232) was 7.42.
